Data on three compounds can be found in patent US20080214563A1, “Benzimidazole Thiophene Compounds As Plk Modulators” (priority 2005, published 2008).

Each structure is given as a SMILES string.

A word on the IC50: it is the concentration needed to halve the response being measured. As a reminder, the AUC(0-t) is the area under the concentration-time curve up to a stated or last time point. The low end stands for less exposure, the high end for more exposure.

The subject of one data set is A549-L. The data set can be described thus: Cell-Titer Glo Cell Growth Inhibition Assay, A549-L. Type of data set: cell-based. Particulars: Homo sapiens, CellTiter-Glo, 72 h, read-out: CTG A549-L IC50. The procedure: (§1) A549-L (human lung), BT474 (human breast), Colo 205 (human colon), H1299 (human lung), Hela (human cervix), HCT-116 (human colon), HN5 (human head and neck), HT29 (human colon), LNCap (human prostate), MCF7 (human breast), MDA-MB468 (human breast), MX-1 (human breast), RPMI 8226 (human peripheral blood), SKOV3 (human ovary) and P388 (murine leukemia) cell lines were cultured in RPMI1640 containing 10% fetal bovine serum at 37° C. in a 5% CO2 incubator. Cell lines were split into T75 flasks (Falcon #353136) two to three days prior to assay set up at density which yields approximately 70-80% confluency at time of harvest for assay. Cells were harvested using 0.25% trypsin with EDTA (Glibco/Invitrogen #25200-056), Cell counts were performed on cell suspensions using Trypan Blue exclusion staining, cells were then plated in 105 uL of culture media per well at the following densities in 96 well Costar #3916 black flat bottom plates: All human cell lines were plated at 500 cells/well. P388 were plated at 250 cells/well. All plates were placed at 5% CO2 37° C. overnight and then test compounds were added the following day. One plate of each cell type is treated with CellTiter-Glo (Promega #G7573) for a day 0 proliferation measurement and read as described below. The test compounds are prepared in clear U bottom polypropylene 96 well plates (Falcon #35-1190 with consecutive two fold dilutions. 9 uL of these dilutions was added into each well of the cell plates. The final concentration of DMSO in all wells is 0.15%. Cells were incubated at 37° C., 5% CO2 for 72 h. Following 72 h of incubation with compounds each plate was developed and read. CellTiter-Glo reagent was added to assay plates using a volume equivalent to the cell culture volume in the wells. Plates were shaken for approximately two minutes and incubated at room temperature for approximately 15 min and the chemiluminescent signal is read on the Victor V or Envison 2100 reader. […] Concentration of compound that inhibited 50% of cell growth (IC50) was analysis by 4 or 6 parameter fit of data using XLfit, value of no cell addition was subtracted from all samples for background.
(In ATP-based viability assays light output follows the ATP content of the culture.)

The nature of data set [1]: Intravenous pharmacokinetics in CD-1 mouse. Type of data set: in vivo. Particulars: plasma, iv bolus, male CD-1 mouse, dose 1.9-7.4 mg/kg per compound (Table 3); for clearance: read-out: Plasma CL.
In a further data set the test system is P388. In words: Cell-Titer Glo Cell Growth Inhibition Assay, P388. Particulars: Mus musculus, CellTiter-Glo, 72 h, read-out: CTG P388 IC50. Type of data set: cell-based, murine. As for the experimental part:
as §1

In a further data set the test system is SKOV3. The data set can be described thus: Cell-Titer Glo Cell Growth Inhibition Assay, SKOV-3. Format: cell-based. As to conditions: Homo sapiens, SK-OV-3, CellTiter-Glo, 72 h, read-out: CTG SKOV-3 IC50. The procedure: as §1
The test system of a further data set is HCT-116. The data set can be described thus: Cell-Titer Glo Cell Growth Inhibition Assay, HCT116. As to conditions: Homo sapiens, CellTiter-Glo, 72 h, read-out: CTG HCT116 IC50. Type of data set: cell-based. The procedure, abridged: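 Human tumour cells in RPMI1640 + 10% FBS, plated at 500 cells/well, rested overnight, then given two-fold compound dilutions (0.15% DMSO) for 72 h at 37° C, 5% CO2. CellTiter-Glo luminescence read against a day-0 plate; IC50 from 4- or 6-parameter fit after no-cell background subtraction.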

Another data set concerns MX-1. The data set can be described thus: Cell-Titer Glo Cell Growth Inhibition Assay, MX-1. Type of data set: cell-based. As to conditions: Homo sapiens, MX1, CellTiter-Glo, 72 h, read-out: CTG MX-1 IC50. As for the experimental part:
as §1

For a further data set, the system named is Colo 205. In words: Cell-Titer Glo Cell Growth Inhibition Assay, COLO205. Type of data set: cell-based. Particulars: Homo sapiens, CellTiter-Glo, 72 h, read-out: CTG COLO205 IC50. The procedure:
as §1

In the case of `C[C@@H](Oc1cc(-n2cnc3cc(-c4cnn(C)c4)ccc32)sc1C(N)=O)c1ccccc1Cl` [Example 9, 3-{[(1R)-1-(2-Chlorophenyl)ethyl]oxy}-5-[5-(1-methyl-1H-pyrazol-4-yl)-1H-benzimidazol-1-yl]-2-thiophenecarboxamide], the IC50 in the data set on A549-L was below 100 nM; in the data set with P388 it was 100 to 1000 nM; in the data set with SKOV3 it was below 100 nM; in the data set with HCT-116 it was below 100 nM; in the data set with MX-1 it was below 100 nM; in the data set with Colo 205, below 100 nM. In data set [1], this compound returned an AUC(0-t) of 5760 ng·h/mL. Also, in data set [1], the clearance was found to be 12.1 mL/min/kg.
As to `C[C@@H](Oc1cc(-n2cnc3cc(-c4ccc(N5CCNCC5)nc4)ccc32)sc1C(N)=O)c1ccccc1Cl` [Example 7, 3-{[(1R)-1-(2-Chlorophenyl)ethyl]oxy}-5-{5-[6-(1-piperazinyl)-3-pyridinyl]-1H-benzimidazol-1-yl}-2-thiophenecarboxamide], the IC50 in the data set with A549-L is below 100 nM; with P388 it was below 100 nM; with SKOV3, 100 to 1000 nM; in the data set on HCT-116 it was below 100 nM; in the data set on MX-1 it was 100 to 1000 nM; with Colo 205 it was below 100 nM. The same compound showed an AUC(0-t) in data set [1] of 3740 ng·h/mL. For the same compound, the clearance in data set [1] was 33 mL/min/kg.
In the case of `C[C@@H](Oc1cc(-n2cnc3cc(-c4ccc(N5CCNCC5)nc4)ccc32)sc1C(N)=O)c1ccccc1C(F)(F)F` [Example 1, 5-{5-[6-(1-piperazinyl)-3-pyridinyl]-1H-benzimidazol-1-yl}-3-({(1R)-1-[2-(trifluoromethyl)phenyl]ethyl}oxy)-2-thiophenecarboxamide], the IC50 was 100 to 1000 nM in the data set on A549-L; 100 to 1000 nM in the data set on P388; 100 to 1000 nM in the data set on SKOV3; below 100 nM with HCT-116; below 100 nM with MX-1; below 100 nM with Colo 205. In addition, the AUC(0-t) in data set [1] stood at 3420 ng·h/mL. For the same compound, the clearance in data set [1] was 23.5 mL/min/kg.
